Experimental data from EPA's ToxValDB 9.5.
Where a name gives a salt, the structure may show the parent alone.

Tested on: Rattus norvegicus
Details: oral
[1] = short-term, duration: 28 days, gavage, F, Sprague-Dawley, Clinical Observation: Staggering gait Locomotor activity decrease, Lacrimation Prone position Loose stool + Functional Observational Battery…
[2] = short-term, duration: 28 days, gavage, M, Sprague-Dawley, Clinical Observation: Staggering gait Locomotor activity decrease, Lacrimation Prone position Loose stool + Functional Observational Battery…
[3] = short-term, duration: 28 days, gavage, M, Sprague-Dawley, Clinical Observation: Salivation Spontaneous locomotion decrease, Respiratory rate decrease
[4] = subchronic, gavage, M, Sprague-Dawley, Clinical Observation: Soiled perigenital region + Body Weight Changes: Weight gain decrease + Food Consumption: decrease(week 1) + Blood …
[5] = subchronic, gavage, M, Sprague-Dawley, Clinical Observation: Salivation PtosisReddish urine + Functional Observational Battery: Salivation Coordination of movement, abnormal …
[6] = subchronic, gavage, M, Sprague-Dawley, Absolute Organ Weight: Liver increase + Relative Organ Weight: Liver increase + Necropsy: Stomach-Thickening of limiting ledge + …
[7] = short-term, duration: 28 days, gavage, F, Sprague-Dawley, Clinical Observation: Soft stool + Body Weight Changes: decrease, Gain decrease + Urinalysis: Protein increasep H decrease + Blood Chemistry…
[8] = short-term, duration: 28 days, gavage, M, Sprague-Dawley, Clinical Observation: Soft stool + Body Weight Changes: decrease, Gain decrease + Urinalysis: Protein increasep H decrease + Blood Chemistry…
[9] = subchronic, gavage, M, Sprague-Dawley, Body Weight Changes: Body weight gain decrease + Food Consumption: Food consumption decrease + Blood Chemistry: ALP decrease, TG decrease, …
[10] = short-term, duration: 28 days, gavage, M, Sprague-Dawley, Clinical Observation: Locomotor activity decrease, Staining around nose and mouth Salivation + Functional Observational Battery: Motor …

Cc1ccc(C)c(OCCCC(C)(C)C(=O)O)c1 [Gemfibrozil]
NOAEL (chronic, duration: 91 days, diet, F, CD, Body Weight Changes: Body weight gain decrease + Hematology: RBC decrease, HCT decrease, HGB decrease, Plt increase, RET increase + Blood …): 30 mg/kg-day | NOAEL (chronic, duration: 91 days, diet, M, CD, Body Weight Changes: Body weight gain decrease + Hematology: RBC decrease, HCT decrease, HGB decrease, Plt increase, RET increase + Blood …): < 30 mg/kg-day

CC/C=C\CCOC(=O)c1ccccc1O [(3Z)-Hex-3-en-1-yl salicylate]
NOAEL (subchronic, duration: 42 days, gavage, M, Sprague-Dawley, Water Consumption: increase + Urinalysis: Volume increase, Osmo decrease + Hematology: RBC decrease, MCV increase, MCHC increase, RET …): 120 mg/kg-day

CCc1ncnc(Cl)c1Cl [4,5-DICHLORO-6-ETHYLPYRIMIDINE]
NOEL (short-term, duration: 28 days, gavage, M/F, Deaths + Clinical Observation: Salivation Locomotor activity decrease, Ptosis + Body Weight Changes: Weight gain decrease + Food Consumption…): 5 mg/kg-day

O=C([O-])[C@H](O)[C@@H](O)[C@H](O)[C@H](O)CO.[Na+] [Sodium D-gluconate]
NOAEL (short-term, duration: 28 days, diet, CD(SD)): 4100 mg/kg-day | NOAEL (short-term, duration: 28 days, diet, Sprague-Dawley): 5% | NOAEL (short-term, duration: 28 days, gavage, M, CD(SD), Histopathology: Stomach: Thickening of the limiting ridge): 1000 mg/kg-day | NOAEL (short-term, duration: 28 days, gavage, M, CD(SD), Histopathology: Stomach: Thickening, limiting ridge): 1000 mg/kg-day

C=CC(=O)N(C)C [N,N-Dimethylacrylamide]
NOEL (short-term, duration: 28 days, gavage, M/F, Sprague-Dawley, Functional Observational Battery: Urination increase, Rearing decrease, Unkempt fur Motor activity decrease + Body Weight Changes: decrease…): 20 mg/kg-day

NC(=O)Nc1ccccc1 [1-Phenylurea]
LOEL [1]: 400 mg/kg-day | NOEL [1]: 200 mg/kg-day | LOEL [2]: 200 mg/kg-day | NOEL [2]: 100 mg/kg-day

CCCCC(CC)COC(=O)CS (stereo not given) [2-Ethylhexyl thioglycolate]
NOAEL (short-term, duration: 28 days, diet, M, Fischer 344, Hematology: WBC decrease Lymph decrease + Blood Chemistry: AST increase): 0.2%

CC1(C)COC(=O)C1O (stereo not given) [2(3H)-Furanone, dihydro-3-hydroxy-4,4-dimethyl-]
NOAEL (short-term, duration: 28 days, gavage, M, Sprague-Dawley, Blood Chemistry: K increase): 200 mg/kg-day

O=P(OCCCl)(OCCCl)OCCCl [Tris(2-chloroethyl) phosphate]
NOAEL [3]: 400 mg/kg-day | NOEL [3]: 80 mg/kg-day

Cc1cccc(Cl)c1Cl [Benzene, 1,2-dichloro-3-methyl-]
NOAEL [4]: 200 mg/kg-day | NOEL [4]: < 50 mg/kg-day

COc1cc(NC(=O)CC(C)=O)c(OC)cc1Cl [4'-Chloro-2',5'-dimethoxyacetoacetanilide]
NOAEL [5]: 40 mg/kg-day | NOEL [5]: 8 mg/kg-day

ClC(Cl)(Cl)c1ccccc1 [Benzotrichloride]
NOAEL (short-term, duration: 28 days, diet, M/F, CD, Blood Chemistry: SDH(sorbitol dehydrogenase) increase, LDH increase + Histopathology: Liver: Anisokaryosis associated with pyknosis, …): < 0.5 ppm

Nc1ccc2cc(S(=O)(=O)O)ccc2c1 [6-Aminonaphthalene-2-sulfonic acid]
NOEL (short-term, duration: 28 days, gavage, M/F, Urinalysis: pH decrease + Blood Chemistry: GOT increase): 300 mg/kg-day

C[C@@H](O)[C@H]1C(=O)N2C(C(=O)O)=C([C@H]3CCCO3)S[C@H]12 [Fropenem]
NOAEL (chronic, duration: 182 days, gavage, M/F, CD, Clinical Observation: Loose stool Soiled perineal region + Body Weight Changes: decrease + Food Consumption: decrease + Water Consumption: …): 100 mg/kg-day

CC(=O)OC1CC(C)OC(C)O1 (stereo not given) [Dimethoxane]
NOEL (subchronic, duration: 13 weeks, gavage, M/F, Fischer 344, Body Weight Changes: decrease + Relative Organ Weight: Kidney increase, Brain increase, Lung increase + Histopathology: Stomach/forestomach…): 31 mg/kg-day

COc1cc(N=Nc2ccc3cc(S(=O)(=O)[O-])c(N=Nc4cc(OC)c(N=Nc5ccc(N)cc5S(=O)(=O)[O-])cc4OC)c(O)c3c2)c(OC)cc1N.[Na+].[Na+]
NOEL (short-term, duration: 28 days, gavage, M/F, Body Weight Changes: Body weight gain decrease + Food Consumption: decrease + Hematology: GOT increase, GPT increase, TG decrease + Organ …): 2 mg/kg-day

CCC1(c2ccccc2)C(=O)NCNC1=O [Primidone]
NOEL (chronic, duration: 14 weeks, diet, M/F, Fischer 344, Body Weight Changes: decrease + Hematology: Plt increase, Hgb decrease, WBC increase, Lympho increase + Blood Chemistry: Blood cemistry', '…): < 23.4 mg/kg-day

CCOC(=O)/C=C\C(=O)OCC [Diethyl maleate]
NOAEL [6]: 20 mg/kg-day | NOEL [6]: 20 mg/kg-day

COc1ccc(OC)c(N)c1 [Benzenamine, 2,5-dimethoxy-]
NOEL (short-term, duration: 28 days, gavage, M/F, Clinical Observation: Salivation + Body Weight Changes: Weight gain decrease + Food Consumption: decrease + Hematology: HGB decrease, RET …): 1 mg/kg-day

[O-][n+]1ccccc1[S-].[O-][n+]1ccccc1[S-].[Zn+2] [Zinc pyrithione]
NOEL (subchronic, gavage, Sprague-Dawley): 1 mg/kg-day

CCC(C)=NO [2-Butanone oxime]
NOEL (subchronic, drinking water, F, Fischer 344, Clinical Observation: Dark eyes Pale ears + Body Weight Changes: decrease + Water Consumption: decrease + Hematology: Hct decrease, Hgb …): < 30 mg/kg-day | NOEL (subchronic, drinking water, M/F, Fischer 344, Clinical Observation: Dark eyes Pale ears + Body Weight Changes: decrease + Water Consumption: decrease + Hematology: Hct decrease, Hgb …): < 47.4 mg/kg-day

Cc1ccc(S(=O)(=O)Cl)cc1 [p-Toluenesulfonyl chloride]
NOAEL (subchronic, duration: 51 days, gavage, M, Sprague-Dawley, Clinical Observation: Soft stool Staining around anorectal region Staining around mouth Staining around nose(blood like) Loss of hair around…): < 150 mg/kg-day

CCCCCCCC[Si](OCC)(OCC)OCC [Triethoxyoctylsilane]
NOAEL (short-term, duration: 28 days, diet, Fischer 344): 10000 ppm | NOAEL (short-term, duration: 29 days, gavage, M/F, Sprague-Dawley, Clinical Observation: Soiling of the head (nose, chin, muzzle) + Body Weight Changes: Mean body weight decrease, Weight gain decrease + Food…): 300 mg/kg-day

COC(N)=O [Methyl carbamate]
NOEL (subchronic, duration: 13 weeks, gavage, M/F, Fischer 344, Deaths + Body Weight Changes: decrease + Absolute Organ Weight: Liver decrease + Relative Organ Weight: Liver decrease + Histopathology: …): 50 mg/kg-day

C=Cc1ccc(S(=O)(=O)[O-])cc1.[Na+] [Sodium 4-vinylbenzenesulfonate]
LOEL [7]: 1000 mg/kg-day | NOEL [7]: 300 mg/kg-day | LOEL [8]: 300 mg/kg-day | NOEL [8]: 100 mg/kg-day

Cc1cc(Cc2cc(C)cc(C(C)(C)C)c2O)c(O)c(C(C)(C)C)c1 [2,2'-Methylenebis(4-methyl-6-tert-butylphenol)]
NOEL (subchronic, diet, F, Wistar, Deaths: Survival rate.6 (45% % ).0 (20% % ) + Body Weight Changes: decrease + Food Consumption: decrease + Hematology: Hgb decrease RBC …): < 104 mg/kg-day | NOEL (subchronic, diet, M/F, Wistar, Deaths: Survival rate.6 (45% % ).0 (20% % ) + Body Weight Changes: decrease + Food Consumption: decrease + Hematology: Hgb decrease RBC …): < 0.12% | NOEL (subchronic, diet, M/F, Wistar, Hematology: Hgb increasemg/kg/ + Blood Chemistry: Cho increasemg/kg/ + Absolute Organ Weight: Liver increasemg/kg/ + Relative Organ …): 1.92 mg/kg-day

O=C1CCCO1 [gamma-Butyrolactone]
NOEL (subchronic, duration: 13 weeks, gavage, M/F, Fischer 344, Clinical Observation: Slight inactivity Recumbent + Body Weight Changes: decrease + Absolute Organ Weight: Thymus decrease + Relative Organ …): 112 mg/kg-day

CC(=O)CC(=O)Nc1ccc(-c2ccc(NC(=O)CC(C)=O)c(C)c2)cc1C
NOEL (short-term, duration: 28 days, gavage, M/F, Crl:CD(SD), Body Weight Changes: decrease + Food Consumption: decrease + Water Consumption: decrease + Urinalysis: Volume decrease + Blood Chemistry: …): 8 mg/kg-day

COC(=O)c1cccc(C(=O)OC)c1 [Dimethyl isophthalate]
NOAEL (subchronic, gavage, M, Sprague-Dawley, Clinical Observation: Salivation + Urinalysis: Volume increase, Na increase): 250 mg/kg-day

C(CCCOCC1CO1)CCOCC1CO1 (stereo not given) [1,6-Hexanediol diglycidyl ether]
NOAEL [9]: 30 mg/kg-day | NOEL [9]: 30 mg/kg-day

O=C1OC(O)C(C(Cl)Cl)=C1Cl (stereo not given) [3-Chloro-4-(dichloromethyl)-5-hydroxy-2(5H)-furanone]
NOAEL (chronic, duration: 18 weeks, gavage, M/F, Wistar, Deaths + Clinical Observation: Emaciation Wheezy breathing Tangled fur Hypersalivation Dirty mouth surrounding Colored nostril discharges + …): < 30 mg/kg-day

S=C(SSSSC(=S)N1CCCCC1)N1CCCCC1 [Bis(piperidinothiocarbonyl) tetrasulphide]
NOEL (short-term, duration: 28 days, gavage, F, Sprague-Dawley, Histopathology: Kidney-Hyaline droplet, proximal tubular epithelium Kidney-Eosinophilic body, proximal tubular epithelium): 1000 mg/kg-day | NOEL (short-term, duration: 28 days, gavage, M, Sprague-Dawley, Histopathology: Kidney-Hyaline droplet, proximal tubular epithelium Kidney-Eosinophilic body, proximal tubular epithelium): 100 mg/kg-day | NOEL (subchronic, gavage, M, Sprague-Dawley, Clinical Observation: Light brown stool + Body Weight Changes: decrease, R): 1000 mg/kg-day

CC(C)CCCCCOC(=O)CCc1cc(C(C)(C)C)c(O)c(C(C)(C)C)c1
NOEL (short-term, duration: 28 days, gavage, M/F, Hematology: APTT increase + Organ Weight: Liver increase + Histopathology: Liver - Hypertrophy, centrilobular, hepatocyte Thyroid - …): < 5 mg/kg-day

C1=CCCC=CCCC=CCC1 [1,5,9-Cyclododecatriene]
NOEL (subchronic, duration: 42 days, gavage, M, CD(SD), Clinical Observation: Salivation + Body Weight Changes: Weight gain decrease + Hematology: PT increase, APTT increase, Fibrinogen increase…): 12 mg/kg-day | NOAEL (subchronic, duration: 55 days, gavage, M, Sprague-Dawley, Body Weight Changes: Weight gain decrease + Food Consumption: increase + Urinalysis: Vol increase + Blood Chemistry: TG decrease + Absolute …): 30 mg/kg-day

O=NN1CN2CN(C1)CN(N=O)C2 [N,N-Dinitrosopentamethylenetetramine]
NOAEL [10]: < 40 mg/kg-day | NOEL [10]: < 40 mg/kg-day

O=C(Nc1ccccc1SSc1ccccc1NC(=O)c1ccccc1)c1ccccc1 [2,2'-Dibenzoylaminodiphenyl disulfide]
NOEL (subchronic, gavage, M, Sprague-Dawley, Clinical Observation: Salivation + Blood Chemistry: ALT increase, Glu increase + Absolute Organ Weight: Liver increase + Relative Organ …): 300 mg/kg-day

CC(C)(C)c1cc(N=C(NO)c2ccc([N+](=O)[O-])cc2)n[nH]1
NOEL (short-term, duration: 28 days, gavage, M/F, Body Weight Changes: Weight gain decrease + Hematology: RET increase, RBC decrease, HGB decrease, WBC increase, MCV increase, MCH increase, …): < 4 mg/kg-day
